Each structure is given as a SMILES string. pKi: −log10 of the molar value.

From ChEMBL document CHEMBL1134832, “Conformational analysis of tandospirone in aqueous solution: lead evolution of potent dopamine D4 receptor ligands” (Bioorg Med Chem Lett, 2001) come the findings set out here.

Assay [1] has as its target T1, 5-hydroxytryptamine receptor 1A (Homo sapiens, UniProt P08908).
T1 sequence (P08908 whole entry): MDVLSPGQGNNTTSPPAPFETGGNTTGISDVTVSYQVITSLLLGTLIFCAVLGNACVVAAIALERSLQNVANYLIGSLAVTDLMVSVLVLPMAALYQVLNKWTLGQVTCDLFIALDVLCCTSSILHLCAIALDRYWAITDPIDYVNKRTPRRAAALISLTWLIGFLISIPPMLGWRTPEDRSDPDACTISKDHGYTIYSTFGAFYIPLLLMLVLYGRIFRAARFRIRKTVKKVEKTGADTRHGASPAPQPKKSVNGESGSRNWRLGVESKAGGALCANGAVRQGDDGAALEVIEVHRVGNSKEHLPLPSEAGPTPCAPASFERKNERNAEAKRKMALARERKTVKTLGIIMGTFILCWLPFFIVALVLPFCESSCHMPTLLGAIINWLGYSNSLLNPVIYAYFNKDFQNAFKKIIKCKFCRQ
Nature of the assay: Binding affinity to 5-hydroxytryptamine 1A receptor was determined.

A further assay addresses T2, D(4) dopamine receptor (Homo sapiens, UniProt P21917).
T2 sequence (P21917 whole entry): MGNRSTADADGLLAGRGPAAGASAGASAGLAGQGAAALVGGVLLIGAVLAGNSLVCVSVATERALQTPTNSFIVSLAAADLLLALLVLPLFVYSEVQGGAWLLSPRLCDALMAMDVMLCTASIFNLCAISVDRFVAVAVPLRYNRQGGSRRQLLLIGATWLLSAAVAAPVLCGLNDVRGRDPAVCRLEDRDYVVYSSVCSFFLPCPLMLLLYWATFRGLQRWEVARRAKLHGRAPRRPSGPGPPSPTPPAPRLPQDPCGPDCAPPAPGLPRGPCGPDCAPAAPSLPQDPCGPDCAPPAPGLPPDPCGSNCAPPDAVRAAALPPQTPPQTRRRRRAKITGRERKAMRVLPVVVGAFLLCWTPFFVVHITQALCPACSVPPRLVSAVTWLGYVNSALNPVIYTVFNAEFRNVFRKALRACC
Briefly: Binding affinity to Dopamine receptor D4 was determined.

A further assay addresses D(2) dopamine receptor (Homo sapiens, UniProt P14416). Nature of the assay: Binding affinity to Dopamine receptor D2 was determined.

D(2) dopamine receptor, sequence (P14416 whole entry): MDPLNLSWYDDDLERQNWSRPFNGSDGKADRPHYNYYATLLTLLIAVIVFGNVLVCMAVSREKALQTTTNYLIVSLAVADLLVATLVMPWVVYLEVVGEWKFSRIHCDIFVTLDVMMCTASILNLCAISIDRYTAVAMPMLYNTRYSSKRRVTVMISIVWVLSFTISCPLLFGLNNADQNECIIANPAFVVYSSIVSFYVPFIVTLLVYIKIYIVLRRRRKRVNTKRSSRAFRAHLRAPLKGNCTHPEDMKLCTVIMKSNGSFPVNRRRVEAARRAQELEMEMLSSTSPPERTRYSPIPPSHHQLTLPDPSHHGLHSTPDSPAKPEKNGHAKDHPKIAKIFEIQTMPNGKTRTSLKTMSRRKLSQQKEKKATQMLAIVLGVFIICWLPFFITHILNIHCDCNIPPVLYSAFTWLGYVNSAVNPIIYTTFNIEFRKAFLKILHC

Turning to `CNc1nc(Cl)c(Sc2ccccc2)c(N2CCN(C)CC2)n1`, the pKi (usually the Ki on a negative log10 scale, so that one unit is a factor of ten) in assay [1] was 6.34; on D(4) dopamine receptor, 6.60; on D(2) dopamine receptor it was 6.73.
Turning to `CNc1nc(Cl)c(SC)c(N2CCN(C)CC2)n1` [MEZILAMINE], the pKi in assay [1] was 6.37; on D(4) dopamine receptor, under 5.00; on D(2) dopamine receptor, 8.27.
As for `Cc1nc(Cl)c(Sc2ccc(Cl)cc2)c(N2CCN(C)CC2)n1`, the negative-log Ki (pKi) was 5.82 in assay [1], 6.59 on D(4) dopamine receptor and 7.21 on D(2) dopamine receptor.
As for `CN1CCN(c2nc3ccccc3c(Cl)c2Sc2ccccc2)CC1`, the pKi in assay [1] was 5.70; on D(4) dopamine receptor, 7.04; at D(2) dopamine receptor, 7.51.
In the same order, the values of `O=C1[C@@H]2[C@H]3CC[C@H](C3)[C@@H]2C(=O)N1CCCCN1CCN(c2ncccn2)CC1` [TANDOSPIRONE] are 7.49, 8.14 and 6.34.
On to `Cc1nc(Cl)c(Sc2ccc(Cl)cc2)c(NC2CCN(Cc3ccccc3)CC2)n1`, for which the pKi in assay [1] was 6.80; at D(4) dopamine receptor, 8.64; on D(2) dopamine receptor, 7.21.
